Test system: MCF7 cells
Test: Whole cell cytotoxicity assay: Sulforhodamine B
Format: cell-based, Human
Conditions: compound concentration 100 μM, MCF7 cell growth, 48 hours with drug, SRB staining; for inhibition at 100 µM: Homo sapiens
Method: The following procedure can be found on the Developmental Therapeutics Program NCI/NIH web site at http://dtp.nci.nih.gov/brancehes/btb/ivclsp.html.
1. Human tumor cell lines of HT29, A549 and MCF7 are grown in DMEM containing 10% fetal bovine serum and 2 mM L-glutamine. Cells are plated in a 96 well plate at a density of 5000 cells per well in 100 uL of growth medium and incubated at 37° C., 5% CO2, for 24 hours prior to the addition of experimental compounds.
2. Experimental drugs are solubilized in DMSO for a final concentration of 20 mM immediately prior to use. Drugs are further diluted in growth media for a total of nine drug concentrations and a growth control. At the 24 hour time point, one plate of cells is fixed in situ with TCA as a measurement of the cell population at time zero, or the time of drug addition.
3. The plates are further incubated with drug for an additional 48 hours.
4. The cells are fixed in situ by gently aspirating off the culture media and then adding 50 uL of ice cold 10% TCA per well and incubated at 4° C. for 60 minutes. The plates are washed with tap water five times and allowed to air dry for 5 minute.
5. 50 ul of a 0.4% (w/v) Sulforhodamine B solution in 1% (v/v) acetic acid is added per well and incubated for 30 minutes at room temperature.
6. Following staining, plates are washed five times with 1% acetic acid to remove any unbound dye and then allowed to air dry for 5 minutes.
7. Stain is solubilized with 100 uL of 10 mM Tris pH 10.5 per well and placed on an orbital rotator for 5 minutes.
8. Absorbance is read at 570 nm.

Row | Compound | % inhibition MCF7 cells @ 100 μM [%] | inhibition at 100 µM [%]
1 | 2-(4-{4-[(3-(pyrrolidin-1-ylmethyl)-2-furyl]phenylsulfonyl}piperazin-1-yl)-1,3-thiazole-5-carboxylic acid hydroxyamide [Example 283] | 98 | –
2 | Cc1ccc(S(=O)(=O)N2CCN(c3ncc(C(=O)NO)s3)CC2)cc1[N+](=O)[O-] [Example 324, 2-{4-[(4-methyl-3-nitrophenyl)sulfonyl]piperazin-1-yl}-1,3-thiazole-5-carboxylic acid hydroxyamide] | – | 96
3 | O=C(NO)c1cnc(N2CCN(S(=O)(=O)c3ccc(-c4csc(CN5CCCC5)c4)cc3)CC2)s1 [Example 307, 2-{4-[4-(2-(pyrrolidin-1-ylmethyl)thien-4-yl)phenylsulfonyl]piperazin-1-yl}-1,3-thiazole-5-carboxylic acid hydroxyamide] | – | 99
4 | O=C(NO)c1cnc(N2CCN(S(=O)(=O)c3ccc(-c4ccccc4CN4CCCC4)cc3)CC2)s1 [Example 321, 2-{4-[2′-{pyrrolidin-1-ylmethyl}-1,1′-biphenylsulfonyl]piperazin-1-yl]-1,3-thiazole-5-carboxylic acid hydroxyamide] | – | 95
5 | C=CCN(CC=C)Cc1cccc(-c2ccc(S(=O)(=O)N3CCN(c4ncc(C(=O)NO)s4)CC3)cc2)c1 [Example 317] | – | 66
6 | COCCN(C)Cc1cccc(-c2ccc(S(=O)(=O)N3CCN(c4ncc(C(=O)NO)s4)CC3)cc2)c1 [Example 316, 2-{4-[3′-{[(2-methoxyethyl)(methyl)amino]methyl}-1,1′-biphenylsulfonyl]piperazin-1-yl}-1,3-thiazole-5-carboxylic acid hydroxyamide] | – | 97
7 | O=C(NO)c1cnc(N2CCN(S(=O)(=O)c3ccc(N4CCCC4)c(F)c3)CC2)s1 [Example 328, 2-(4-{[3-fluoro-4-(pyrrolidin-1-yl)phenyl]sulfonyl}piperazin-1-yl)-1,3-thiazole-5-carboxylic acid hydroxyamide] | – | 96
8 | O=C(NO)c1cnc(N2CCN(S(=O)(=O)c3ccc(-c4cccc(CN(CCO)CCO)c4)cc3)CC2)s1 [Example 312, 2-{4-[3′-{[bis(2-hydroxyethyl)amino]methyl}-1,1′-biphenylsulfonyl]piperazin-1-yl}-1,3-thiazole-5-carboxylic acid hydroxyamide] | – | 85
9 | CCCCN(C)Cc1cccc(-c2ccc(S(=O)(=O)N3CCN(c4ncc(C(=O)NO)s4)CC3)cc2)c1 [Example 314, 2-{4-[3′-{[(butyl)(methyl)amino]methyl}-1,1′-biphenylsulfonyl]piperazin-1-yl}-1,3-thiazole-5-carboxylic acid hydroxyamide] | – | 97
10 | CN(C)Cc1ccoc1-c1ccc(S(=O)(=O)N2CCN(c3ncc(C(=O)NO)s3)CC2)cc1 [Example 308, 2-(4-{4-[3-((dimethylamino)-methyl)-2-furyl]phenylsulfonyl}piperazin-1-yl)-1,3-thiazole-5-carboxylic acid hydroxyamide] | – | 99
11 | CCS(=O)(=O)N1CCN(c2ncc(C(=O)NO)s2)CC1 [Example 332, 2-{4-[ethylsulfonyl]piperazin-1-yl}-1,3-thiazole-5-carboxylic acid hydroxyamide] | – | 30
12 | Cc1ccc(C)c(S(=O)(=O)N2CCN(c3ncc(C(=O)NO)s3)CC2)c1 [Example 326, 2-{4-[(2,5-dimethylphenyl)sulfonyl]piperazin-1-yl}-1,3-thiazole-5-carboxylic acid hydroxyamide] | – | 98
13 | O=C(NO)c1cnc(N2CCN(S(=O)(=O)c3cccc(OC(F)F)c3)CC2)s1 [Example 323, 2-(4-{[3-(difluoromethoxy)phenyl]sulfonyl}piperazin-1-yl)-1,3-thiazole-5-carboxylic acid hydroxyamide] | – | 100
14 | CN(CCO)Cc1cccc(-c2ccc(S(=O)(=O)N3CCN(c4ncc(C(=O)NO)s4)CC3)cc2)c1 [Example 311, 2-{4-[3′-{[(2-hydroxyethyl)(methyl)amino]methyl}-1,1′-biphenylsulfonyl]piperazin-1-yl}-1,3-thiazole-5-carboxylic acid hydroxyamide] | – | 98
15 | COCc1cccc(-c2ccc(S(=O)(=O)N3CCN(c4ncc(C(=O)NO)s4)CC3)cc2)c1 [Example 320, 2-{4-[3′-{methoxymethyl}-1,1′-biphenylsulfonyl]piperazin-1-yl}-1,3-thiazole-5-carboxylic acid hydroxyamide] | – | 92
16 | O=C(NO)c1cnc(N2CCN(S(=O)(=O)c3ccc(-c4cccc(CN5CCNCC5)c4)cc3)CC2)s1 [Example 315, 2-{4-[3′-((piperazin-1-yl)methyl)-1,1′-biphenylsulfonyl]piperazin-1-yl}-1,3-thiazole-5-carboxylic acid hydroxyamide] | – | 95
17 | O=C(NO)c1cnc(N2CCN(S(=O)(=O)c3ccc(N4CCOCC4)cc3)CC2)s1 [Example 330, 2-(4-{[4-(morpholin-4-yl)phenyl]sulfonyl}piperazin-1-yl)-1,3-thiazole-5-carboxylic acid hydroxyamide] | – | 91
18 | 2-[4-(naphtha-2-yl-4-sulfonyl)-piperazin-1-yl]-thiazole-5-carboxylic acid hydroxyamide [Example 201] | 95 | –
19 | CC(=O)NCc1cccc(-c2ccc(S(=O)(=O)N3CCN(c4ncc(C(=O)NO)s4)CC3)cc2)c1 [Example 319, 2-{4-[3′-{[N-acetylamino]methyl}-1,1′-biphenylsulfonyl]piperazin-1-yl}-1,3-thiazole-5-carboxylic acid hydroxyamide] | – | 89
20 | Cc1ccc(S(=O)(=O)N2CCN(c3ncc(C(=O)NO)s3)CC2)c(CN2CCCC2)c1 [Example 327, 2-(4-{[2-(pyrrolidin-1-ylmethyl)-4-methylphenyl]sulfonyl}piperazin-1-yl)-1,3-thiazole-5-carboxylic acid hydroxyamide] | – | 92
21 | O=C(NO)c1cnc(N2CCN(S(=O)(=O)c3ccc(-c4cccc(CN5CC=CCC5)c4)cc3)CC2)s1 [Example 313, 2-{4-[3′-(3,6-dihydropyridin-1(2H)-ylmethyl)-1,1-biphenylsulfonyl]piperazin-1-yl}-1,3-thiazole-5-carboxylic acid hydroxyamide] | – | 92
22 | O=C(NO)c1cnc(N2CCN(S(=O)(=O)c3ccc(N4CCCCC4)cc3)CC2)s1 [Example 329, 2-(4-{[4-(piperidin-1-yl)phenyl]sulfonyl}piperazin-1-yl)-1,3-thiazole-5-carboxylic acid hydroxyamide] | – | 97
23 | O=C(NO)c1cnc(N2CCN(S(=O)(=O)c3ccc(-c4cc(CN5CCCC5)co4)cc3)CC2)s1 [Example 309] | – | 83
24 | CNCc1cccc(-c2ccc(S(=O)(=O)N3CCN(c4ncc(C(=O)NO)s4)CC3)cc2)c1 [Example 318, 2-{4-[3′-{[methylamino]methyl}-1,1′-biphenylsulfonyl]piperazin-1-yl}-1,3-thiazole-5-carboxylic acid hydroxyamide] | – | 86
25 | CN(C)Cc1ccsc1-c1ccc(S(=O)(=O)N2CCN(c3ncc(C(=O)NO)s3)CC2)cc1 [Example 310] | – | 98
26 | O=C(NO)c1cnc(N2CCN(S(=O)(=O)C(F)(F)F)CC2)s1 [Example 331, 2-{4-[(trifluoromethyl)sulfonyl]piperazin-1-yl}-1,3-thiazole-5-carboxylic acid hydroxyamide] | – | 76

From patent US20050250784A1 (Miikana Therapeutics Corporation, priority 2004, published 2005)
